Laboratory results: publication PMC5620277, “The histone methyltransferase EZH2 as a druggable target in SHH medulloblastoma cancer stem cells” (Oncotarget, 2017)

How the values were obtained:
DAOY cells = assay: Western Blot of H3K27me3 and PCNA in DAOY cells; format: cell-based; conditions: 5 μM, 48 h
Method: (§1) To evaluate cell viability cells were plated at a density of 5×10^3 cells/well in 96-well plates and were incubated with MTS solution (CellTiter 96® AQueous One Solution Promega).
(§2) Western blots were performed according to standard procedures. Briefly, protein lysates were prepared using RIPA buffer with fresh protease inhibitors. Lysates were separated on SDS polyacrylamide gels. Proteins were transferred on nitrocellulose membrane (0.45 micron) (PerkinElmer). Membranes were blocked for 1 h at room temperature in 5% nonfat dry milk and incubated overnight at 4°C with antibodies against EZH2 (4905S Cell signaling), H3K27me3 (07-449 Millipore), PCNA (2586 Cell signaling), ACTIN (I-19 sc-1616; Santa Cruz Biotechnology), GAPDH (ab9484, Abcam), cleaved CSP-3 (D-175 9661S; Cell Signaling) and H3 (ab1971, Abcam). HRP-conjugated secondary antibodies (Santa Cruz Biotechnology) were used in combination with enhanced chemiluminescence (ECL Amersham).

hMB-SLCs [1] = assay: Western Blot of H3K27me3, PCNA, cleaved caspase 3 in hMB-SLCs; format: cell-based, human; conditions: 5 μM, 48 h
Method: as §1, §2

mMB-SLCs [2] = assay: Self-renewal, clonogenic assay, mMB-SLCs; format: cell-based, mouse; conditions: 5 μM
Method: (§3) For self-renewal assessment, clonogenic assay was performed as previously described. Briefly: oncospheres were disaggregated with non-enzymatic cell dissociation buffer (Sigma) and cells were plated at clonal density (1-2 cells/mm^2) into 96-well plates and cultured for an appropriate number of days (7-15) until oncospheres were countable.

[3] = test system: DAOY-SLCs orthotopic tumors (XT-MB); assay: Xenograft DAOY-SLCs orthotopic tumors (XT-MB) in nude mice; format: in vivo, mouse; conditions: 20 μMoles/Kg i.p. twice a week for 3 weeks
Method: Next, we generated xenograft DAOY-SLCs orthotopic tumors (XT-MB) in nude mice that grew as tumor masses with the characteristics of MBs.
DAOY-SLCs were stereotaxically implanted into the cerebellum of nude mice by using the following coordinates according to the atlas of Franklin and Paxinos: 6.6 mm posterior to the bregma; 1 mm lateral to the midline; and 2 mm ventral from the surface of skull of mice, under ketamine (100 mg/kg, i.p.)/xylazine (10 mg/kg, i.p.) anesthesia. Cells (2×10^5 per 3 μl) were implanted at an infusion rate of 1 μl/min. Mice were separated into two groups. Group 1 (n=8) was intraperitoneally treated with MC3629 (20 μMoles/Kg) suspended in 10% (2-Hydroxypropyl)-β-cyclodextrin +1%DMSO (Sigma), Group 2 (n=8) was treated with 10% (2-Hydroxypropyl)-β-cyclodextrin +1%DMSO (Sigma). After 21 days of treatment, animals were sacrificed and brains were formalin fixed and paraffin embedded. Brain tumor volume calculation: Serial thick coronal sections (2 μm) starting from mesencephalon to the end of cerebellum were performed. The analysis was performed on 20 sections, sampled every 40 μm on the horizontal plan of the cerebellum, in which the tumor was identified and outlined at 2.5X magnification.
Every 40 μm of brain slice, hematoxylin and eosin (H&E) staining was performed. Tumor area of every slice was evaluated with a microscope (Axio Imager M1 microscope) equipped with a motorized stage and software Image Pro Plus 6.2. The following formula was used to calculate brain tumor volume: tumor volume = sum of (measured area for each slice x slice thickness x sampling frequency).
Paraffin-embedded sections were deparaffinized, and stained with either H&E or immunohistochemical stains as specified. Heat-induced epitope retrieval was performed with citrate buffer pH 6. Sections were incubated with ki67 primary antibody (Thermo Scientific) for 1 h. Ki67 expression was expressed as percentages of total cells with labeled nuclei.

DNMT1 = DNMT1 (Homo sapiens, UniProt P26358); assay: Methyltransferase panel: DNMT1; format: biochemical; conditions: substrate Poly dI-dC
Method: MC3629 was tested in the cell free enzymatic assay (EZH2/PRC2) in 10-dose IC50 mode with 2-fold serial dilution starting from 400 μM solution, using various histone substrates (histone H3/H4 octamer, histone H3/H4 tetramer, histone H3, and core histone) and SAM as the co-substrate. […] (Figure 2B, and Supplementary Figure 2).
The appropriate methyltransferase (MT) substrate (0.05 mg/ml core histone for EZH1 complex, 0.05 mg/ml oligonucleosomes for DOT1L, 5 μM histone H3 (1-21) peptide for G9a, 0.05 mg/ml nucleosomes for MLL1 complex, 0.05 mg/ml core histone for SET7/9, 5 μM histone H4 for PRMT1, and 0.001 mg/ml poly(dI-dC) for DNMT1) was added in freshly prepared Reaction Buffer (50 mM Tris-HCl (pH 8.5), 5 mM MgCl2, 50 mM NaCl, 0.01% Brij35, 1 mM DTT, 1% DMSO). The MT enzyme was delivered into the substrate solution and the mixture was mixed gently. Afterwards, the tested compound dissolved in DMSO was delivered into the enzyme/substrate reaction mixture by using Acoustic Technology (Echo 550, LabCyte Inc. Sunnyvale, CA) in nanoliter range, and 1 μM ^3H-SAM was also added into the reaction mixture to initiate the reaction. The reaction mixture was incubated for 1 h at 30°C and then it was delivered to filter-paper for detection. The data were analyzed using Excel and GraphPad Prism software for IC50 curve fits (for EZH1 complex).

mMB-SLCs [4] = assay: Western Blot of H3K27me3, PCNA, cleaved caspase 3 in mMB-SLCs; format: cell-based, mouse; conditions: 48 h
Method: Afterwards, we tested the ability of MC3629 (at 0.5, 5, and 25 μM) to inhibit the EZH2 enzymatic activity on a cell-based assay in vitro. The lower significant MC3629 dosage to decrease the H3K27me3 level in MB-SLCs was 5 μM (Figure 2C).
as §1, §2

DAOY-SLCs = assay: Cell death (Trypan blue test) in DAOY-SLCs; format: cell-based; conditions: 5 μM, 72 h
Method: Trypan blue exclusion test was used to count viable or death cells present in a cell suspension. Each sample was measured in triplicate and repeated at least three times.

hMB-SLCs [5] = assay: Self-renewal, clonogenic assay, hMB-SLCs; format: cell-based, human; conditions: 5 μM
Method: as §3

mMB-SLCs [6] = assay: Cell viability, MTS assay, mMB-SLCs; format: cell-based, mouse
Method: In both cell lines, we determined the lowest useful dose of MC3629 (5 μM) and the minimum effective time (48 h) (Figure 2D, 2E and Supplementary Figure 4A and 4B for data at 24 and 72 h). We next evaluated the performance of MC3629 on MB-SLCs in terms of cell viability in regards to other EZH2i in use, confirming the dose selection (Supplementary Figure 4C).
as §1

Chain of DNMT1 (P26358 whole entry, species assumed): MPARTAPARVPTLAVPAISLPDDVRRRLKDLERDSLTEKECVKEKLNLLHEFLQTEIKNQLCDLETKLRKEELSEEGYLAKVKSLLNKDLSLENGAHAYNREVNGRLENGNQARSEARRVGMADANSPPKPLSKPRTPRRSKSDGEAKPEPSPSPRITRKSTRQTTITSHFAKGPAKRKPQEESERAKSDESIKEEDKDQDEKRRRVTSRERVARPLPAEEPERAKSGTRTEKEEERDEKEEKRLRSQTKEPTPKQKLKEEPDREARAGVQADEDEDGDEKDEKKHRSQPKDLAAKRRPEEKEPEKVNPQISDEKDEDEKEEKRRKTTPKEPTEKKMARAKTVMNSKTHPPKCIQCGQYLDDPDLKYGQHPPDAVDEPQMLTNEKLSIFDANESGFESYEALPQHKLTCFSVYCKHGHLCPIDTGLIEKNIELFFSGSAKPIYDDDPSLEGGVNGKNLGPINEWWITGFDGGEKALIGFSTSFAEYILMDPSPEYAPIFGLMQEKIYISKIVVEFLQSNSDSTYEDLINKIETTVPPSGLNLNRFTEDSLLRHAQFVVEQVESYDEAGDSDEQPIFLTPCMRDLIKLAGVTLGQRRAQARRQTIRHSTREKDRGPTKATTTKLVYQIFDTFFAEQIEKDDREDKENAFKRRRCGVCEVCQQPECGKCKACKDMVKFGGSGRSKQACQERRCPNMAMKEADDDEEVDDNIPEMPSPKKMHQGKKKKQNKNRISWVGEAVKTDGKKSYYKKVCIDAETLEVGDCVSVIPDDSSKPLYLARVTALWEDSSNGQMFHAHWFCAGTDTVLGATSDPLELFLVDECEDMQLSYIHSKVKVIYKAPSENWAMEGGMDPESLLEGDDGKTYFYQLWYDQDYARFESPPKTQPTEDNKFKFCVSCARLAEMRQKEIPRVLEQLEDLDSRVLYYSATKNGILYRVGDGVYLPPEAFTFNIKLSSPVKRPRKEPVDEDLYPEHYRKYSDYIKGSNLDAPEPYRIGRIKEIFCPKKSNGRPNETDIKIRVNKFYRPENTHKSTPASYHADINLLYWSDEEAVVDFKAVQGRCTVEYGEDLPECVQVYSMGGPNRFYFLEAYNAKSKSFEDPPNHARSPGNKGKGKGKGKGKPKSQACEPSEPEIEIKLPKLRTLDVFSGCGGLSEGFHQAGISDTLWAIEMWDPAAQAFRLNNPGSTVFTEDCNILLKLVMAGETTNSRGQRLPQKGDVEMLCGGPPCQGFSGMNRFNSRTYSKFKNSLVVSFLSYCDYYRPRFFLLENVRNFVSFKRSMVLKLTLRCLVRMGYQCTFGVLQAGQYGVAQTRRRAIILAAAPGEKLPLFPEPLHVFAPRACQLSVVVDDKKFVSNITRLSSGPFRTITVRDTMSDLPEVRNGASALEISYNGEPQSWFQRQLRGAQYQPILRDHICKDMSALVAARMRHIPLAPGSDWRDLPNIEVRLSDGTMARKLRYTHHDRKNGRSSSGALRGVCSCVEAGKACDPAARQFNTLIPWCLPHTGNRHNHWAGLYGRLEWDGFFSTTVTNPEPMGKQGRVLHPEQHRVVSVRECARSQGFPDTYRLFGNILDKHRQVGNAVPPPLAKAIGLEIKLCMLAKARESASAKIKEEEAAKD

Structure (SMILES): Cc1cc(C)c(CNC(=O)c2cnn(-c3ccccc3)c2C)c(=O)[nH]1 [MC3629, N-((4,6-dimethyl-2-oxo-1,2-dihydropyridin-3-yl)methyl)-5-methyl-1-phenyl-1H-pyrazole-4-carboxamide]
- H3K27me3 and PCNA levels (DAOY cells): impaired
- H3K27me3 and PCNA protein levels (hMB-SLCs [1]): significantly impaired
- apoptosis, level of cleaved caspase 3 (hMB-SLCs [1]): induced apoptosis
- self-renewal (mMB-SLCs [2]): significantly reduced
- H3K27me3 in tumor xenografts ([3]; Western Blot): reduction
- NANOG protein in tumors ([3]; Western Blot): significantly lower levels
- apoptosis, level of cleaved caspase 3 in XT-MB ([3]; Western Blot): induction of apoptosis
- proliferating Ki67-positive cells in tumors ([3]; immunostaining): significant reduction
- XT-MB growth (xenograft volume) ([3]; nude mice): significantly impaired
- inhibition at 200 µM (DNMT1): 0%
- H3K27me3 and PCNA protein levels (mMB-SLCs [4]; mMB-SLCs, 5 μM): significantly impaired
- apoptosis, level of cleaved caspase 3 (mMB-SLCs [4]; mMB-SLCs, 5 μM): induced apoptosis
- lower significant dosage to decrease the H3K27me3 level (mMB-SLCs [4]; tested at 0.5, 5, 25 μM): 5 µM
- cell death (DAOY-SLCs): induced cell death
- self-renewal (hMB-SLCs [5]): significantly reduced
- minimum effective time, cell viability (mMB-SLCs [6]): 48 h
- lowest useful dose, cell viability (mMB-SLCs [6]; dose- and time-dependent experiments): 5 µM
